Source: patent publication US20190328857A1, “CALR AND JAK2 VACCINE COMPOSITIONS” (IO Biotech ApS, priority 2016, published 2019)

Experiments:
Type in all cases: cell-based, human
UKE-1 and THP-1 cells = test: ELISPOT of JAK201-specific T cells stimulated with cancer cell lines; conditions: 100 U/ml IFN-γ 2 days before assaying
Text: (§1) Next, we examined the capacity of JAK201-specific T cells to recognize and kill cancer cells harboring the JAK2V617F mutation. UKE-1, SET-2 and THP-1 are acute myeloid leukemia cancer cell lines that are HLA-A2-positive. THP-1 cells are JAK2 wt, whereas UKE-1 cells are homozygous and SET-2 are heterozygous for the JAK2V617F mutation. We first examined JAK201-specific T-cells reaction towards the UKE-1 cancer cell line. […] IFN-γ is known to induce the immunoproteasome and to upregulate HLA class I on the cell surface overall enhancing the antigen presentation by the target cell.
Finally to confirm the recognition of cells expressing the JAK2V617F mutation, we transfected JAK2 wt THP-1 cells with mRNA encoding the JAK2V617F mutation using neural growth factor receptor (NGFR) encoding mRNA as control and used these cells as target cells in cytokine release and Granzyme B assays. […] More than 50% of patients with Philadelphia chromosomenegative chronic MPN harbor the JAK2V617F mutation. This acquired somatic mutation is found exclusively in myeloid malignancies, rendering it a cancer-specific antigen. JAK2V617F is consequently an attractive target for cancer immune therapy.

autologous CALRmut cells = test: Intracellular cytokine staining of CALRLong1-specific T cells stimulated with autologous target cells; conditions: IFN-γ 300 U/ml for 24 h
Protocol: As target cells, we used autologous CD14^+ monocytes and B-cells (BCL). As described above, CD14^+ monocytes were isolated using the MACS CD14 MicroBead kit. An autologous B-cell line was generated using EBV transfection of donor BCL at the Health Protection Agency Culture Collections, Salisbury, UK.
Frozen T-cells were thawed one day prior to assaying, and in experiments examining CD107a expression, a CD107a-PE antibody was added to cells directly after addition of peptide or target cells. After one hour of stimulation, protein-transport inhibitor Brefeldin A (BD Biosciences, San Jose, Calif., USA) was added to the cells which were then stimulated for four h. Cells were stained with CD3-APC-H7, CD4-FITC, CD8-PerCP, IFN-γ-APC, TNF-α-BV421 and Fixable Viability Stain 510 (BD Biosciences, San Jose, Calif., USA), permeabilized and washed with Permeabilization Reagent/Diluent and fixation-permeabilization buffer (AH Diagnostics, Aarhus, Denmark). Cells were acquired with a FACS Canto II (BD Biosciences) and analyzed using FACSDiva software. All effector cell stimulations were run in triplicate wells if not otherwise specified.
Autologous CD14^+ monocytes were cultured with CellGro, GM-CSF (1000 U/ml) and IL-4 (250 U/mL) and transfected with either CALR siRNA or negative-control siRNA (Invitrogen) the next day, using electroporation parameters as described previously (Met et al., 2011). In brief, monocytes were washed twice, suspended in Opti-MEM medium (Invitrogen) and adjusted to a final cell density of 10^7 cells/ml. The cell suspension (200 μl) was preincubated for 5 min on ice and subsequently, together with 5 μl of CALR siRNA or 10 μl of negative control siRNA transferred to a 2-mm gap electroporation and pulsed using a BTX 830 square-wave electroporator (Harvard Apparatus, Holliston Mass., USA). Electroporation settings were adjusted to a single pulse, 250 V, 2 ms. […]
As target cells, we used CD14^+ monocytes with CALRmut allelic burden of 71% and autologous EBV-transformed immortalized B-cells with a CALRmut allelic burden of 0% determined by PCR analysis. […]

[1] = system: UKE-1, SET-2 and THP-1 cells; test: Standard Cr^51 cytotoxicity assay with JAK201-specific T cells and cancer cell lines
Text: as §1
Then we examined the importance of the intracellular expression of the JAK2V617F mutation for the recognition of target cells by JAK201-specific T cells. Thus to silence the JAK2V617F mutation, we transfected UKE-1 cells with JAK2V617F siRNA and used the transfected cells as target cells, and compared the recognition with mock transfected UKE-1 cells as previously described. Silencer siRNA duplex for targeted silencing of JAK2V617F with 3′-end overhang dT bases in the antisense strand (sense sequence 5′-[…]-3′ (SEQ ID NO: 21), antisense sequence 5′-[…]-3′ (SEQ ID NO: 22) for duplex 1; and sense sequence 5′-[…]-3′ (SEQ ID NO: 23), antisense sequence 5′-[…]-3′ (SEQ ID NO: 24) for duplex 2) were obtained from Invitrogen (Invitrogen, Paisley, UK). […]

IFN-γ: cytokine used to pretreat target cells to enhance antigen presentation
effect of pretreatment of UKE-1 cells on IFN-γ release from the T cells (UKE-1 and THP-1 cells): even greater release
effect of target cell stimulation on T-cell activation, B-cells (autologous CALRmut cells): no change in activation
effect of target cell stimulation on T-cell activation, CALRmut monocytes (autologous CALRmut cells): significantly enhanced
lysis of SET-2 cells after stimulation ([1]; IFN-γ stimulation): likewise lysed
effect of treatment of UKE-1 cells on lysis ([1]; IFN-γ treatment): augmented
